# In ChEMBL document CHEMBL1145437, “Synthesis and biological evaluation of N-acetyl-beta-aryl-1,2-didehydroethylamines as new HIV-1 RT inhibitors in vitro” (Bioorg Med Chem Lett, 2007):
# pEC50, pIC50: −log10 of the molar value. Active and inactive are the calls of the source. The rule behind the calls is not given here.
# Experiments:
# [1] = test system: Human immunodeficiency virus 1; experiment: Inhibition of HIV1 reverse transcriptase at 200 ug/mL
# [2] = Cytotoxicity in human C8166 cells; type: cell-based
# [3] = test system: Human immunodeficiency virus 1; experiment: Antiviral activity against HIV1 assessed as syncytium reduction; type: functional, organism-based
# [4] = Therapeutic index, Ratio of CC50 for human C8166 cells to EC50 for HIV1; type: cell-based; details: read-out: TI
# [5] = Inhibition of HIV1 reverse transcriptase; set-up: species or system Human immunodeficiency virus 1
# [6] = test system: Human immunodeficiency virus 1; experiment: Inhibition of HIV1 reverse transcriptase at 20 ug/mL
SMILES,inhibition [1],CC50 [2],pIC50 [5],other results
COc1cc(OC)c(OC)cc1/C=C/NC(C)=O,,,,Activity [1]: inactive
CC(=O)N/C=C/c1ccccc1Br,54.4%,241 µM,,pEC50 [3]: 3.87; selectivity ratio [4]: 1.8
Cc1cn([C@H]2C[C@H](N=[N+]=[N-])[C@@H](CO)O2)c(=O)[nH]c1=O [ZIDOVUDINE],,> 5090 µM,,pEC50 [3]: 7.97; selectivity ratio [4]: > 471000
CC(=O)N/C=C/c1ccco1,,,,Activity [1]: inactive
O=[N+]([O-])/C=C/c1ccc(F)cc1,22.9%,,,
O=[N+]([O-])/C=C/c1ccc(Cl)cc1,19.8%,,,
CC(=O)N/C=C/c1ccsc1,,,,Activity [1]: inactive
CC(=O)N/C=C/c1cccc(Cl)c1,10.7%,,,
CC(=O)N/C=C/c1ccccc1C,40.1%,385 µM,,pEC50 [3]: 3.42; selectivity ratio [4]: 1
O=[N+]([O-])/C=C/c1ccc(Br)cc1,20.3%,13.6 µM,,
Cc1cc(C)c(/C=C/[N+](=O)[O-])cc1C,31.5%,6.9 µM,,
CC(=O)N/C=C/c1ccc(F)cc1,,,,Activity [1]: inactive
O=[N+]([O-])/C=C/c1cccc(Br)c1,13.4%,,,
COc1ccc(/C=C/[N+](=O)[O-])c(OC)c1,86.3%,5.4 µM,3.26,
CC(=O)N/C=C/c1ccccc1O,10.1%,,,
O=[N+]([O-])/C=C/c1ccccc1Br,95.7%,0.57 µM,3.69,
COc1ccc(/C=C/NC(C)=O)c(OC)c1,,,,Activity [1]: inactive
CC(=O)N(C)/C=C/c1ccccc1Br,85.3%,> 787 µM,3.47,pEC50 [3]: 4.22; selectivity ratio [4]: > 13.2
O=[N+]([O-])/C=C/c1ccccc1O,98.2%,18.8 µM,3.27,
CC(=O)N(C)/C=C/c1ccccc1C,79.8%,609 µM,3.31,pEC50 [3]: 3.94; selectivity ratio [4]: 5.2
O=[N+]([O-])/C=C/c1ccc2ccccc2c1,58.8%,40.6 µM,3.03,
COc1ccc(/C=C/[N+](=O)[O-])cc1,93.5%,6.3 µM,3.25,
COc1ccccc1/C=C/[N+](=O)[O-],99.7%,5 µM,3.65,
CC(=O)N(C)/C=C/c1cccc(Br)c1,45.4%,409 µM,3.08,pEC50 [3]: 3.89; selectivity ratio [4]: 3.2
CC(=O)N/C=C/c1ccc(Br)cc1,,,,Activity [1]: inactive
COc1ccc(/C=C/NC(C)=O)cc1,,,,Activity [1]: inactive
CC(=O)N/C=C\c1ccsc1,12%,,,
O=[N+]([O-])/C=C/c1cccc(Cl)c1,49.8%,4.6 µM,< 2.96,

SMILES,inhibition [1],CC50 [2],pIC50 [5],other results
CC(=O)N/C=C/c1ccccc1F,36.2%,341 µM,,pEC50 [3]: 3.42; selectivity ratio [4]: < 1
Cc1ccc(/C=C/[N+](=O)[O-])cc1,36.9%,15.2 µM,,
O=[N+]([O-])/C=C/c1ccccc1Cl,99.3%,3 µM,3.44,
O=[N+]([O-])/C=C/c1ccccc1F,95.4%,2.8 µM,3.44,
CC(=O)N/C=C/c1cccc(Br)c1,41.5%,134 µM,,pEC50 [3]: 4.05; selectivity ratio [4]: 1.5
CC(=O)N(C)/C=C/c1ccccc1F,61.7%,667 µM,3.32,pEC50 [3]: 3.92; selectivity ratio [4]: 5.6
CC(=O)N(C)/C=C/c1ccc(Br)cc1,,,,Activity [1]: inactive
O=[N+]([O-])/C=C/c1ccco1,91.8%,28.9 µM,3.33,
CC(=O)N/C=C/c1cccc2ccccc12,26.5%,,,
COc1ccccc1/C=C/NC(C)=O,,,,Activity [1]: inactive
Cc1ccccc1/C=C/[N+](=O)[O-],99.2%,7.4 µM,3.58,
O=[N+]([O-])/C=C/c1ccsc1,86.2%,25.5 µM,3.15,
O=C(O)P(=O)(O)O [FOSCARNET],,,5.89,inhibition [6]: 96.5%
O=[N+]([O-])/C=C/c1ccc(O)cc1,96.4%,15.8 µM,3.26,
CC(=O)N/C=C/c1ccc(C(F)(F)F)cc1,,,,Activity [1]: inactive
CC(=O)N/C=C/c1ccccc1Cl,34%,297 µM,,pEC50 [3]: 3.91; selectivity ratio [4]: 2.4
O=[N+]([O-])/C=C/c1ccc(C(F)(F)F)cc1,29.4%,,,
CC(=O)N(C)/C=C/c1ccccc1Cl,75.2%,441 µM,3.36,pEC50 [3]: 4.02; selectivity ratio [4]: 4.6
CC(=O)N/C=C/c1ccc(Cl)cc1,,,,Activity [1]: inactive
CC(=O)N/C=C/c1cc(C)c(C)cc1C,25.4%,,,
O=[N+]([O-])/C=C/c1ccccc1 [(2-NITROVINYL)BENZENE],99.7%,13.6 µM,4.06,
CC(=O)N/C=C/c1ccc2ccccc2c1,30.1%,154 µM,,pEC50 [3]: 4.30; selectivity ratio [4]: 3.1
CC(=O)N/C=C/c1ccc(O)cc1,,,,Activity [1]: inactive
CC(=O)N/C=C/c1ccccc1,22.2%,,,
O=[N+]([O-])/C=C/c1cccc2ccccc12,81.4%,39.6 µM,3.10,
COc1cc(OC)c(OC)cc1/C=C/[N+](=O)[O-],49.1%,4.7 µM,< 3.08,
CC(=O)N/C=C/c1ccc(C)cc1,16.6%,,,
